“Also recorded” adds a separate entry of the source. Structures can show the parent of a compound that is named as a salt.
Assays:
[1] = tested on: BDNF-gene exon-IV promoter construct; test: Luciferase-based reporter gene assay with BDNF-gene exon-IV promoter construct in SH-SY5Y cells; format: cell-based, human; details: 48 h incubation, fluoxetine 3, 5, 10 μM or venlafaxine 10, 30, 50 μM; for change of luciferase reporter gene activity (luminescence), methylated construct: Sss1-methylated BDNF-gene exon-IV promoter in pGL4.14, SH-SY5Y; for change of luciferase reporter gene activity (luminescence), unmethylated construct: unmethylated BDNF-gene exon-IV promoter in pGL4.14, SH-SY5Y, hydrochloride
[2] = tested on: SH-Sy5Y cells; test: CellTiter-Glo Luminescent Cell Viability Assay (cytotoxic concentrations); details: 10 μM, 30 μM, 50 μM Venlafaxine
Protocol: Cells were maintained at 37° C. in a humidified atmosphere of 5% CO2 in atmosphere. To determine cytotoxic concentrations of fluoxetine and venlafaxine by CellTiter-Glo Luminescent Cell Viability Assay (Promega, Madison, Wis.) 1.5×10^5 cells were plated in 96 well plates and grown for 24 hours. Three wells at a time were incubated with different amounts of fluoxetine hydrochloride or venlafaxine hydrochloride (both Sigma-Aldrich Germany, Taufkirchen), both solved in sterile deionized water at 4 mg/mL. […] After incubation for 24 hours cytotoxicity was documented by microscope photography and measured using a GloMax Multi+ Detection System (Promega, Madison, Wis.).

Compound	change of luciferase reporter gene activity (luminescence), methylated construct [1]	change of luciferase reporter gene activity (luminescence), unmethylated construct [1]	cytotoxicity at the concentrations used [2]
CNCCC(Oc1ccc(C(F)(F)F)cc1)c1ccccc1 (centres unmarked) [fluoxetine, fluoxetine hydrochloride]	did not change expression levels	decrease of reporter gene activity; also recorded: significant decrease of luciferase expression	–
COc1ccc(C(CN(C)C)C2(O)CCCCC2)cc1 (centres unmarked) [venlafaxine, venlafaxine hydrochloride]	did not change expression levels	decrease of reporter gene activity; also recorded: significant decrease of luciferase expression	non-toxic
